Numbering of substitutions follows the chain as printed.
What was measured:
[1] = molecular target: T1, Dahl R Dear S44P/M74T variant (Rattus norvegicus, UniProt D3ZGZ6, F4L/M74T/S44P); test: Radioligand binding to Dahl R Dear expressed in Cos1 cell membranes; settings: for hormone binding (direct radioligand binding), in words: Dahl R Dear transiently expressed in Cos1 cells
T1 construct: expressed in transfected cells; host or cells: Cos1 cells (membranes), pcDNA expression vector
T1 sequence (D3ZGZ6 1-127 F4L/S44P/M74T): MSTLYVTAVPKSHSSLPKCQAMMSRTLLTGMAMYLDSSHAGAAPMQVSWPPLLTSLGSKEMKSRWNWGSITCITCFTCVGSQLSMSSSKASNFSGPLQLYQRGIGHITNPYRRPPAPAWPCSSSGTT
Procedure: (§1) The Dahl S and Dahl R Dear cDNAs were subcloned directionally (5′ to 3′) into the pcDNA (+) expression vector (Invitrogen, Carlsbad, Calif.) and transiently expressed in Cos1 cells (ATCC). Cos1 cells were transfected with the expression vectors via lipofectin-mediated gene transfer and cell membranes were isolated 72 hr post-transfection for hormone binding. Rat kidney membranes were prepared essentially as described (42). COS-1 cell membranes were isolated as described (36). Briefly, cells were washed twice in phosphate-buffered saline and homogenized in 10-fold ice-cold buffer (0.25 M sucrose, 1 mM EDTA, 50 μg/ml aprotinin, 10 μg/ml leupeptin, 100 μM phenylmethylsulfonyl fluoride, 25 mM Imidazol/HCl, pH 7.4). The homogenate was centrifuged at 5,000 g for 15 min and the pellet was discarded. The supernatant was then centrifuged at 27,500 g for 30 min and the resulting pellet was washed twice in ice-cold suspension buffer (5 mM MgCl2, 0.2 mM EDTA, 50 mM Hepes, pH 7.4). The final pellet was resuspended into the appropriate assay buffer and quickly frozen in liquid nitrogen. The membrane preparations were store at −80° C. until use. Protein concentrations of the membranes were determined by BCA protein assay kit (PIERCE).
(§2) Binding of [^125I]Tyr^4-angiotensin II and [^125I]Tyr^13-endothelin-1 to COS-1 membranes was performed by a rapid filtration method (32, 50). Briefly, [^125I]Tyr^4-angiotensin II ([…]) or [^125I]Tyr^13-endothelin-1 (0.045˜1.46 nM) was incubated with membranes (100 μg) for 20 min at 37° C. in 100 μl buffer A (5 mM MgCl2, 0.2 mM EDTA, 10 mg/ml BSA, 10 mM Hepes, pH7.4). Binding reactions were terminated by the addition of 1 ml ice-cold buffer A and immediately filtered through a Whatman GF/C filter (presoaked overnight at 4° C. in 10 mg/ml BSA) and subsequently washed with 15 ml ice-cold buffer A. Specific binding was determined as the difference between the total radioactivity bound to membranes and the radioactivity bound to blanks containing 1 μM AngII or 1 μM ET-1. The dissociation constant (Kd) and maximum ligand-binding sites (Bmax) were determined using Hill plot analysis (55). Hill coefficient values (h) were calculated from the relationship ln [B/(Bmax−B)]=h ln [free Radioligand]−ln Kd. An F test (P<0.05) was used to determine whether the saturation binding curves best fitted one or two independent binding sites. The data were best fit by two affinity states determined by Scatchard plot analysis; KH and KL designate the Kd for high- and low-affinity states of the receptor, respectively (44). Most results are expressed as the mean±SE (standard error) from three to five independent experiments.

[2] = molecular target: T2, Dahl S Dear S44/M74 variant (Rattus norvegicus, UniProt D3ZGZ6, F4L); test: Radioligand binding to Dahl S Dear expressed in Cos1 cell membranes; settings: for hormone binding, in words: Dahl S Dear transiently expressed in Cos1 cells; for Bmax / h (Hill coefficient): S44/M74 variant, mean ± s.e.m.
T2 construct: expressed in transfected cells; host or cells: Cos1 cells (membranes), pcDNA expression vector
T2 sequence (D3ZGZ6 1-127 F4L): T1 sequence (D3ZGZ6 1-127 F4L/S44P/M74T) with P44S, T74M
Procedure: as §1, §2

[3] = molecular target: T1, Dahl R Dear S44P/M74T variant; test: West-western blot of kidney and Cos1 cell membranes (labeled ligand on protein blot); type: binding; settings: Dahl R kidney membranes (Kid-R) and Cos1-R membranes
Procedure: (§3) A polyclonal rabbit antipeptide antibody raised against the synthetic peptide P51LLTSLGSKE60 (SEQ. ID. NO. 7) was utilized for western blot analysis (1). Plasma membranes (40 μg protein/lane) were subjected to 12.5% SDS-PAGE and the separated proteins electro-transferred onto PVDF membranes which were incubated with blocking buffer (0.3% Tween-20, 5% non-fat milk, 137 mM NaCl, 2.7 mM KCl, 8.1 mM Na2HPO4, and 1.5 mM KH2PO4, pH7.4) for 2 hr at room temperature, and then incubated with primary antibody (1:500) for 16 hr at 4° C. The PVDF membranes were then sequentially incubated with biotinylated goat anti-rabbit IgG followed by immunostaining with horseradish peroxidase-linked streptavidin. To confirm the interaction between Dear and ligands, we performed west-western blot analysis (62). Briefly, protein blots of kidney and COS-1 cell membranes were incubated with radioligands (0.5 μCi in 10 ml) in buffer A at 37° C. for 16 hr. PVDF membranes were then washed three times for 15 min with buffer A at 37° C. and exposed to X-ray film at −80° C. for 1-3 days.

[4] = molecular target: T2, Dahl S Dear S44/M74 variant; test: as above; type: binding; settings: Dahl S kidney membranes (Kid-S) and Cos1-S membranes
Procedure: as §3

[5] = molecular target: T3, mouse Dear (Mus musculus, UniProt Q2QKR2); test: Ligand binding to mouse Dear expressed in Cos-1 cells; settings: mouse receptor polypeptide, data not shown
T3 construct: The mouse receptor polypeptide contains 127 amino acids showing 78 percent homology with the rat receptor; expressed in transfected cells; host or cells: Cos-1 cells (membranes)
T3 sequence (Q2QKR2 1-127): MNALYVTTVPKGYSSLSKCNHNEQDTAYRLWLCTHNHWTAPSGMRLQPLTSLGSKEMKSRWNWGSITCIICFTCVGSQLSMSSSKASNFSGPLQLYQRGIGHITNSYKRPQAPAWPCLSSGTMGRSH
Procedure: Mouse Dear cDNA was obtained by RT-PCR from C57BL/6 mouse kidney PolyA^+ RNA (forward primer, 5′-[…]-3′ (SEQ. ID. NO. 13); reverse primer, 5′-[…]-3′(SEQ. ID. NO. 14)), subcloned into the PT-vector system (Clontech, Palo Alto, Calif.) and then sequenced (GenBank accession no. DQ009865). RNA blot analysis was done as described (1) using PolyA^+ RNA (3 μg), γ-^32P end labeled anti-sense mouse Dear oligonucleotide (5′-[…]-3′(SEQ. ID. NO. 15)) as probe. Receptor expression studies, ^125I-ET-1-1 and ^125I-AngII binding to membranes were done as described (2).

[6] = [125I]Tyr13-Endothelin I, S44P/M74T variant, mean ± s.e.m.

hormone binding (direct radioligand binding), in words [1]	Bmax [1, 6]	h (Hill coefficient) [1, 6]	hormone binding, in words [2]	increased affinity for ET-1, Dahl S variant compared to Dahl R variant ([2]; KH, S44/M74 vs Dahl R variant)	Bmax ([2]; [125I]Tyr13-Endothelin I)	h (Hill coefficient) ([2]; [125I]Tyr13-Endothelin I)	binding in west-western blot analysis [3]	binding in west-western blot analysis [4]	ligand binding, in words [5]	Bmax ([1]; [125I]Tyr4-Angiotensin II, S44P/M74T variant, Cos1 membranes)	Bmax ([2]; [125I]Tyr4-Angiotensin II, Cos1 membranes)	h (Hill coefficient) ([2]; [125I]Tyr4-Angiotensin II)	SMILES
exhibit normal ET-1 binding	20.21 ± 1.59 pmol/mg membrane protein	1.45 ± 0.09	binding both ET-1 and AngII	3 fold	26.25 ± 1.29 pmol/mg membrane protein	1.41 ± 0.12	reveals binding	reveals binding	binds solely ET-1				CC[C@H](C)[C@H](NC(=O)[C@H](CC(=O)O)NC(=O)[C@H](CC(C)C)NC(=O)[C@H](Cc1c[nH]cn1)NC(=O)[C@@H]1CSSC[C@H](N)C(=O)N[C@@H](CO)C(=O)N[C@H]2CSSC[C@H](NC(=O)[C@H](CCC(=O)O)NC(=O)[C@H](CCCCN)NC(=O)[C@H](CC(=O)O)NC(=O)[C@H](CCSC)NC(=O)[C@H](CC(C)C)NC(=O)[C@H](CO)NC(=O)[C@H](CO)NC2=O)C(=O)N[C@@H](C(C)C)C(=O)N[C@@H](Cc2ccc(O)c(I)c2)C(=O)N[C@@H](Cc2ccccc2)C(=O)N1)C(=O)N[C@H](C(=O)N[C@@H](Cc1c[nH]c2ccccc12)C(=O)O)[C@@H](C)CC [[^125I]Tyr^13-Endothelin I]
do not exhibit AngII binding			binding both ET-1 and AngII				binding only to Dahl S kidney membranes	detects binding		no binding	23.6 ± 0.92 pmol/mg membrane protein	2.63 ± 0.25	CC[C@H](C)[C@H](NC(=O)[C@H](Cc1ccc(O)c(I)c1)NC(=O)[C@@H](NC(=O)[C@H](CCCNC(=N)N)NC(=O)[C@@H](N)CC(=O)O)C(C)C)C(=O)N[C@@H](Cc1c[nH]cn1)C(=O)N1CCC[C@H]1C(=O)N[C@@H](Cc1ccccc1)C(=O)O [[^125I]Tyr^4-Angiotensin II]
